Measurements reported in US8536354B2, “Steroidal ligands and their use in gene switch modulation” (Intrexon Corporation, priority 2008, dated 2013).
Read-outs that look alike come from different tables or passages of the source.

What was measured:
[1] = tested on: Nephotettix cincticeps EcR (NcEcR-DEF); assay: Two-hybrid gene switch assay, NcEcR-DEF in NIH3T3 cells; conditions: for rel max FI (20E), NC: max fold induction at any concentration relative to 20E; for rel max FI (PoA), NC: max fold induction at any concentration relative to PoA; for EC50: read-out: EC50 (μM), NC, NIH3T3 cells, luciferase, 48 h, ligand 0.01-33 μM
[2] = biological target: T1, Tenebrio molitor EcR (TmEcR-DEF) (Tenebrio molitor, UniProt O02035); assay: Two-hybrid gene switch assay, TmEcR-DEF in NIH3T3 cells; conditions: for Emax: NIH3T3, 48 h
T1 sequence (O02035 194-491): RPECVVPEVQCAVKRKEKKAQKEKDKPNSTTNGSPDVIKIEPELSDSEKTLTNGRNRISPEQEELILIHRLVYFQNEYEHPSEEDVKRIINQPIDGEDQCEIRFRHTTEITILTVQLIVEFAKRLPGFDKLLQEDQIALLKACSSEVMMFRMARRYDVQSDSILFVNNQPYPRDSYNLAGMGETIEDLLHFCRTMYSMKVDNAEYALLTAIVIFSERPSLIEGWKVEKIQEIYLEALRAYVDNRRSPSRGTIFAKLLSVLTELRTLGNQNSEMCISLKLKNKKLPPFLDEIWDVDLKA
T1 sequence (P28704 285-520 partner): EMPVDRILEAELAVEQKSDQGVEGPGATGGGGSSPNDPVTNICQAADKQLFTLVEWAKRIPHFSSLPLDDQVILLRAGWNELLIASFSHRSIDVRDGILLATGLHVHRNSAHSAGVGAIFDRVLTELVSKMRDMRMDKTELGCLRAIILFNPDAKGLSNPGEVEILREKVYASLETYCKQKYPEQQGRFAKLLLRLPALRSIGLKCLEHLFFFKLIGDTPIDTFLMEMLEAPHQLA

[3] = biological target: T2, Amblyomma americanum EcR (AmaEcR-DEF) (Amblyomma americanum, UniProt O44338); assay: Two-hybrid gene switch assay, AmaEcR-DEF in NIH3T3 cells; conditions: for Emax: NIH3T3, 48 h
T2 sequence (O44338 291-570): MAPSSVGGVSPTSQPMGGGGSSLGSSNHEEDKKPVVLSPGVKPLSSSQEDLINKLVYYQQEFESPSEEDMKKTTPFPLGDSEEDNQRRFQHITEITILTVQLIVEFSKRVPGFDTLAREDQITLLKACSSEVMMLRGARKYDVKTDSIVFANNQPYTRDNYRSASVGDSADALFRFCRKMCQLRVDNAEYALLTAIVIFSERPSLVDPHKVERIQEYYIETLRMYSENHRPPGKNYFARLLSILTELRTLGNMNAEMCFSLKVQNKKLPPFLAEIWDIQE
T2 sequence (P28702 299-449 partner): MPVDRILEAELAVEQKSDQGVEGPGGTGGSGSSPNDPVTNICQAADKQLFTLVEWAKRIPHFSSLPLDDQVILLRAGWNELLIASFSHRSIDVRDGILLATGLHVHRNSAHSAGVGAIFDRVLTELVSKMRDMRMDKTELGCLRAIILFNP

[4] = biological target: Bemisia argentifolii EcR (BaEcR-DEF) (Bemisia argentifolii (Bemisia tabaci biotype B / MEAM1), UniProt A0A6M3RDR8); assay: Two-hybrid gene switch assay, BaEcR-DEF in NIH3T3 cells; conditions: for Emax: NIH3T3, 48 h
Bemisia argentifolii EcR (BaEcR-DEF), sequence (P28702 298-449): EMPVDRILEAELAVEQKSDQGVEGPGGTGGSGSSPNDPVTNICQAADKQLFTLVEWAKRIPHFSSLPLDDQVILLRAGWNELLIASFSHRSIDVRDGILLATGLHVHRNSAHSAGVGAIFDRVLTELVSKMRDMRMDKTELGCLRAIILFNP
Bemisia argentifolii EcR (BaEcR-DEF), sequence (A0A6M3RDR8 entry or part of it): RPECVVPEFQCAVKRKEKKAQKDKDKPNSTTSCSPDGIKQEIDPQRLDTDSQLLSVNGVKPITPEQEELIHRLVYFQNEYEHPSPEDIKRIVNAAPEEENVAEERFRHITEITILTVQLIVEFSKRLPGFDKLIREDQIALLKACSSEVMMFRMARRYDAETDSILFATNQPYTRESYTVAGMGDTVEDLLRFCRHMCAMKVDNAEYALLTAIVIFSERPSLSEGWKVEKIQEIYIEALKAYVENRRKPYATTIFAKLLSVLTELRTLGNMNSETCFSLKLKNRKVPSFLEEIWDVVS

[5] = read-out: rel max FI (20E), AMA
[6] = read-out: rel max FI (PoA), AMA

With `CO[C@H]1C[C@@]2(C)[C@@H](C[C@H]1O)C(=O)C=C1[C@@H]2CC[C@]2(C)[C@@H]([C@@](C)(O)[C@H](O)CCC(C)(C)O)CC[C@@]12O` [20E-2-methyl ether] the “rel max FI (20E), NC” value [1] was 0.82, the “rel max FI (PoA), NC” value [1] was 0.84 and the EC50 [1] was about 8 µM. For the same molecule, the EC50 [2] was over 33 µM, the Emax ([2]; read-out: rel max FI (20E), TM) was 7% and the Emax ([2]; read-out: rel max FI (PoA), TM) was 4%. It also gave an EC50 [3] of about 10 µM, an Emax [3, 5] of 65% and an Emax [3, 6] of 50%. It also gave an EC50 [4] of over 33 µM, an Emax ([4]; read-out: rel max FI (20E), BA) of 3% and an Emax ([4]; read-out: rel max FI (PoA), BA) of 3%.

In the case of `CO[C@@H]1C[C@H]2C(=O)C=C3[C@H](CC[C@]4(C)[C@@H]([C@@](C)(O)[C@H](O)CCC(C)(C)O)CC[C@@]34O)[C@@]2(C)C[C@@H]1O` [20E-3-methyl ether], the “rel max FI (20E), NC” value [1] is reported as 1.01, the “rel max FI (PoA), NC” value [1] is reported as 1.04 and the EC50 [1] is reported as 1.69 µM. For the same molecule, the EC50 [2] was about 10 µM, the Emax ([2]; read-out: rel max FI (20E), TM) was 114% and the Emax ([2]; read-out: rel max FI (PoA), TM) was 59%. It also gave an EC50 [3] of about 3.3 µM, an Emax [3, 5] of 91% and an Emax [3, 6] of 70%. It also gave an EC50 [4] of about 15 µM, an Emax ([4]; read-out: rel max FI (20E), BA) of 29% and an Emax ([4]; read-out: rel max FI (PoA), BA) of 23%.

For `CO[C@H](CCC(C)(C)O)[C@](C)(O)C1CC[C@@]2(O)C3=CC(=O)C4C[C@@H](O)[C@@H](O)CC4(C)C3CCC12C` (stereo partly drawn) [20E-22-methyl ether], the “rel max FI (20E), NC” value [1] was 1.02, the “rel max FI (PoA), NC” value [1] was 1.05 and the EC50 [1] was 2.59 µM. It also gave an EC50 [2] of 7.08 µM, an Emax ([2]; read-out: rel max FI (20E), TM) of 158% and an Emax ([2]; read-out: rel max FI (PoA), TM) of 81%. It also gave an EC50 [3] of about 1 µM, an Emax [3, 5] of 108% and an Emax [3, 6] of 83%. For the same molecule, the EC50 [4] was about 3 µM, the Emax ([4]; read-out: rel max FI (20E), BA) was 154% and the Emax ([4]; read-out: rel max FI (PoA), BA) was 123%.

For `CO[C@@H]1C[C@H]2C(=O)C=C3[C@H](CC[C@]4(C)[C@@H]([C@@](C)(O)[C@@H](CCC(C)(C)O)OC)CC[C@@]34O)[C@@]2(C)C[C@@H]1O` [20E-3,22-dimethyl ether], the “rel max FI (20E), NC” value [1] was 1.03, the “rel max FI (PoA), NC” value [1] was 1.06 and the EC50 [1] was about 8 µM. The EC50 [2] was about 6 µM, the Emax ([2]; read-out: rel max FI (20E), TM) was 137% and the Emax ([2]; read-out: rel max FI (PoA), TM) was 71%. The EC50 [3] was about 2 µM, the Emax [3, 5] was 104% and the Emax [3, 6] was 80%. The EC50 [4] was about 10 µM, the Emax ([4]; read-out: rel max FI (20E), BA) was 38% and the Emax ([4]; read-out: rel max FI (PoA), BA) was 30%.

`COC1C[C@H]2C(=O)C=C3[C@H](CC[C@]4(C)[C@@H]([C@@](C)(O)C(CCC(C)(C)O)OC)CC[C@@]34OC)[C@@]2(C)CC1OC` (stereo partly drawn) [20E-2,3,14,22-tetramethyl ether] was tested, and the “rel max FI (20E), NC” value [1] was 0.01, the “rel max FI (PoA), NC” value [1] was 0.01 and the EC50 [1] was over 33 µM. For the same molecule, the “rel max FI (20E), TM” value ([2]; TmEcR, max fold induction at any concentration relative to 20E) was 0.05, the “rel max FI (PoA), TM” value ([2]; TmEcR, max fold induction at any concentration relative to PoA) was 0.02 and the EC50 ([2]; read-out: EC50 (μM), TM, TmEcR, NIH3T3 cells, luciferase, 48 h, ligand 0.01-33 μM) was over 33 µM. For the same molecule, the “rel max FI (20E), AMA” value ([3]; AmaEcR, max fold induction at any concentration relative to 20E) was 0.34, the “rel max FI (PoA), AMA” value ([3]; AmaEcR, max fold induction at any concentration relative to PoA) was 0.26 and the EC50 ([3]; read-out: EC50 (μM), AMA, AmaEcR, NIH3T3 cells, luciferase, 48 h, ligand 0.01-33 μM) was over 33 µM. The “rel max FI (20E), BA” value ([4]; BaEcR, max fold induction at any concentration relative to 20E) was 0.02, the “rel max FI (PoA), BA” value ([4]; BaEcR, max fold induction at any concentration relative to PoA) was 0.01 and the EC50 ([4]; read-out: EC50 (μM), BA, BaEcR, NIH3T3 cells, luciferase, 48 h, ligand 0.01-33 μM) was over 33 µM.

With `CO[C@H]1C[C@@]2(C)[C@@H](C[C@H]1O)C(=O)C=C1[C@@H]2CC[C@]2(C)[C@@H]([C@@](C)(O)[C@@H](CCC(C)(C)O)OC)CC[C@@]12O` [20E-2,22-dimethyl ether] the “rel max FI (20E), NC” value [1] was 0.84, the “rel max FI (PoA), NC” value [1] was 0.86 and the EC50 [1] was about 10 µM. The EC50 [2] was about 10 µM, the Emax ([2]; read-out: rel max FI (20E), TM) was 24% and the Emax ([2]; read-out: rel max FI (PoA), TM) was 13%. For the same molecule, the EC50 [3] was about 8 µM, the Emax [3, 5] was 94% and the Emax [3, 6] was 72%. It also gave an EC50 [4] of about 10 µM, an Emax ([4]; read-out: rel max FI (20E), BA) of 24% and an Emax ([4]; read-out: rel max FI (PoA), BA) of 19%.
